Results on 27 compounds are retold here after US20230257351A1, “SUBSTITUTED N-[…] HAVING P2X4 RECEPTOR ANTAGONISTIC ACTIVITY” (Bayer Aktiengesellschaft, priority 2020, published 2023).

This assay concerns the target T1, human P2X4 (Homo sapiens, UniProt Q99571).
T1 construct: expressed in transfected cells
T1 sequence (Q99571 1-388): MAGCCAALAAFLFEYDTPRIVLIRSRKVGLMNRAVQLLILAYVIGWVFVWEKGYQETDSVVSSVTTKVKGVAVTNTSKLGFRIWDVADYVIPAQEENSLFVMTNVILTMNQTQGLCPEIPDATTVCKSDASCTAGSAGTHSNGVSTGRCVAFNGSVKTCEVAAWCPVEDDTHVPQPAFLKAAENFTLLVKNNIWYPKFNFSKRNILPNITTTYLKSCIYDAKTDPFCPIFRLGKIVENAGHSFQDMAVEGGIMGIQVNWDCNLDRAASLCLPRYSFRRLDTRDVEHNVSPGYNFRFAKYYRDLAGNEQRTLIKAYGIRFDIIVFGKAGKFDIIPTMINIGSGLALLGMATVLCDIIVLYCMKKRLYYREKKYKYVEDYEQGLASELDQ
The assay is described as follows: Human P2X4 HEK Cell FLIPR Assay. Particulars: HEK293 stably expressing human P2X4, agonist Bz-ATP 3 μM (EC80); for IC50: read-out: Human P2X4 HEK Cells (FLIPR Assay) avg IC50. It is filed as cell-based. The method in brief:
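Compounds were preincubated 30 min at room temperature on Fluo8-AM-loaded HEK293 cells stably expressing human P2X4. The response was the calcium fluorescence rise on Bz-ATP addition.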

On to `CC(=O)N(c1ccc(S(C)(=O)=O)c(Cl)c1)c1cc(NC(=O)Cc2c(Cl)cccc2Cl)ccn1` [Example 155, N-[3-Chlor-4-(methylsulfonyl)phenyl]-N-{4-[2-(2,6-dichlorphenyl)acetamido]pyridin-2-yl)acetamide], for which the “Human P2X4 HEK Cells (FLIPR Assay) avg Efficacy” value (from here on “Human P2X4 HEK Cells”) was 100% and the concentration for half-maximal inhibition (IC50) is 339 nM.
For `CC(=O)N(c1ccc(S(C)(=O)=O)c(Cl)c1)c1cc(NC(=O)Cc2cccc(F)c2Cl)ccn1` [Example 156, N-{4-[2-(2-Chlor-3-fluorphenyl)acetamido]pyridin-2-yl}-N-[3-chlor-4-(methylsulfonyl)phenyl]acetamide], the “Human P2X4 HEK Cells” value amounted to 96% and the IC50 came out at 512 nM.
The corresponding values for `CC(=O)N(c1ccc(S(C)(=O)=O)c(Cl)c1)c1cc(NC(=O)Cc2ccccc2Cl)ccn1` [Example 157, N-[3-Chlor-4-(methylsulfonyl)phenyl]-N-{4-[2-(2-chlorphenyl)acetamido]pyridin-2-yl}acetamide] are 97% and 644 nM.
In the case of `CC(=O)N(c1ccc(S(C)(=O)=O)c(Cl)c1)c1cc(NC(=O)Cc2c(F)cccc2Cl)ccn1` [Example 158, N-{4-[2-(2-Chlor-6-fluorphenyl)acetamido]pyridin-2-yl}-N-[3-chlor-4-(methylsulfonyl)phenyl]acetamide], the “Human P2X4 HEK Cells” value is 97% and the IC50 turned out to be 649 nM.
On to `CC(=O)N(c1ccc(S(C)(=O)=O)c(Cl)c1)c1cc(NC(=O)Cc2ccc(F)cc2Cl)ccn1` [Example 159, N-{4-[2-(2-Chlor-4-fluorphenyl)acetamido]pyridin-2-yl}-N-[3-chlor-4-(methylsulfonyl)phenyl]acetamide], for which the “Human P2X4 HEK Cells” value worked out at 99% and the IC50 was found to be 949 nM.
As to `COc1cc(F)cc(N(C(C)=O)c2cc(NC(=O)Cc3cccc(F)c3Cl)ccn2)c1` [Example 160, N-{4-[2-(2-Chlor-3-fluorphenyl)acetamido]pyridin-2-yl}-N-(3-fluor-5-methoxyphenyl)acetamide], the “Human P2X4 HEK Cells” value was determined as 101% and the IC50 amounted to 383 nM.
With `COc1cc(F)cc(N(C(C)=O)c2cc(NC(=O)Cc3ccccc3Cl)ccn2)c1` [Example 161, N-{4-[2-(2-Chlorphenyl)acetamido]pyridin-2-yl}-N-(3-fluor-5-methoxyphenyl)acetamide], the “Human P2X4 HEK Cells” value worked out at 101% and the IC50 is 479 nM.
Turning to `COc1cc(F)cc(N(C(C)=O)c2cc(NC(=O)Cc3c(Cl)cccc3Cl)ccn2)c1` [Example 162, N-{4-[2-(2,6-Dichlorphenyl)acetamido]pyridin-2-yl}-N-(3-fluor-5-methoxyphenyl)acetamide], the “Human P2X4 HEK Cells” value is 104% and the IC50 came to 577 nM.
Consider `COc1cc(F)cc(N(C(C)=O)c2cc(NC(=O)Cc3ccc(F)cc3Cl)ccn2)c1` [Example 163, N-{4-[2-(2-Chlor-4-fluorphenyl)acetamido]pyridin-2-yl}-N-(3-fluor-5-methoxyphenyl)acetamide], for which the “Human P2X4 HEK Cells” value was found to be 100% and the IC50 was determined as 665 nM.
On to `COc1cc(F)cc(N(C(C)=O)c2cc(NC(=O)Cc3c(F)cccc3Cl)ccn2)c1` [Example 164, N-{4-[2-(2-Chlor-6-fluorphenyl)acetamido]pyridin-2-yl}-N-(3-fluor-5-methoxyphenyl)acetamide], for which the “Human P2X4 HEK Cells” value came out at 100% and the IC50 amounted to 683 nM.
In the case of `CC(=O)N(c1cc(NC(=O)Cc2c(Cl)cccc2Cl)ccn1)c1ccccc1C(F)F` [Example 165, N-{4-[2-(2,6-Dichlorphenyl)acetamido]pyridin-2-yl}-N-[2-(difluormethyl)phenyl]acetamide], the “Human P2X4 HEK Cells” value is reported as 99% and the IC50 was found to be 402 nM.
In the case of `CC(=O)N(c1cc(NC(=O)Cc2ccccc2Cl)ccn1)c1ccccc1C(F)F` [Example 166, N-{4-[2-(2-Chlorphenyl)acetamido]pyridin-2-yl}-N-[2-(difluormethyl)phenyl]acetamide], the “Human P2X4 HEK Cells” value was 97% and the IC50 stood at 663 nM.
For `CC(=O)N(c1cc(NC(=O)Cc2cccc(F)c2Cl)ccn1)c1ccccc1C(F)F` [Example 167, N-{4-[2-(2-Chlor-3-fluorphenyl)acetamido]pyridin-2-yl}-N-[2-(difluormethyl)phenyl]acetamide] the same measures were 100% and 677 nM.
`CC(=O)N(c1cc(NC(=O)Cc2c(F)cccc2Cl)ccn1)c1ccccc1C(F)F` [Example 168, N-{4-[2-(2-Chlor-6-fluorphenyl)acetamido]pyridin-2-yl}-N-[2-(difluormethyl)phenyl]acetamide]: the “Human P2X4 HEK Cells” value is 99% and the IC50 came out at 761 nM.
`CC(=O)N(c1cc(NC(=O)Cc2ccc(F)cc2Cl)ccn1)c1ccccc1C(F)F` [Example 169, N-{4-[2-(2-Chlor-4-fluorphenyl)acetamido]pyridin-2-yl}-N-[2-(difluormethyl)phenyl]acetamide]: the “Human P2X4 HEK Cells” value came out at 101% and the IC50 came to 813 nM.
Take `CC(=O)N(c1cc(NC(=O)Cc2ccccc2Cl)ccn1)c1ccc(C)cc1C` [Example 170, N-{4-[2-(2-Chlorphenyl)acetamido]pyridin-2-yl}-N-(2,4-dimethylphenyl)acetamide]: the “Human P2X4 HEK Cells” value was 104% and the IC50 was 468 nM.
For the compound `CC(=O)N(c1cc(NC(=O)Cc2cccc(F)c2Cl)ccn1)c1ccc(C)cc1C` [Example 171, N-{4-[2-(2-Chlor-3-fluorphenyl)acetamido]pyridin-2-yl}-N-(2,4-dimethylphenyl)acetamide], the “Human P2X4 HEK Cells” value came to 103% and the IC50 was found to be 511 nM.
Regarding `CC(=O)N(c1cc(NC(=O)Cc2c(F)cccc2Cl)ccn1)c1ccc(C)cc1C` [Example 172, N-{4-[2-(2-Chlor-6-fluorphenyl)acetamido]pyridin-2-yl}-N-(2,4-dimethylphenyl)acetamide], the “Human P2X4 HEK Cells” value was 104% and the IC50 is 520 nM.
For `CC(=O)N(c1cc(NC(=O)Cc2c(Cl)cccc2Cl)ccn1)c1ccc(C)cc1C` [Example 173, N-{4-[2-(2,6-Dichlorphenyl)acetamido]pyridin-2-yl}-N-(2,4-dimethylphenyl)acetamide] the same measures were 104% and 526 nM.
For the compound `CC(=O)N(c1cc(NC(=O)Cc2ccc(F)cc2Cl)ccn1)c1ccc(C)cc1C` [Example 174, N-{4-[2-(2-Chlor-4-fluorphenyl)acetamido]pyridin-2-yl}-N-(2,4-dimethylphenyl)acetamide], the “Human P2X4 HEK Cells” value was determined as 103% and the IC50 came to 528 nM.
For `CC(=O)N(c1cc(C)cc(C#N)c1)c1cc(NC(=O)Cc2ccccc2Cl)ccn1` [Example 175, N-{4-[2-(2-Chlorphenyl)acetamido]pyridin-2-yl}-N-(3-cyan-5-methylphenyl)acetamide], the “Human P2X4 HEK Cells” value is 97% and the IC50 was determined as 516 nM.
As to `CC(=O)N(c1cc(C)cc(C#N)c1)c1cc(NC(=O)Cc2c(Cl)cccc2Cl)ccn1` [Example 176, N-(3-Cyan-5-methylphenyl)-N-{4-[2-(2,6-dichlorphenyl)acetamido]pyridin-2-yl}acetamide], the “Human P2X4 HEK Cells” value worked out at 101% and the IC50 stood at 567 nM.
In the case of `CC(=O)N(c1cc(C)cc(C#N)c1)c1cc(NC(=O)Cc2cccc(F)c2Cl)ccn1` [Example 177, N-{4-[2-(2-Chlor-3-fluorphenyl)acetamido]pyridin-2-yl}-N-(3-cyan-5-methylphenyl)acetamide], the “Human P2X4 HEK Cells” value is given as 96% and the IC50 worked out at 578 nM.
As to `CC(=O)N(c1cc(C)cc(C#N)c1)c1cc(NC(=O)Cc2ccc(F)cc2Cl)ccn1` [Example 178, N-{4-[2-(2-Chlor-4-fluorphenyl)acetamido]pyridin-2-yl}-N-(3-cyan-5-methylphenyl)acetamide], the “Human P2X4 HEK Cells” value was 99% and the IC50 was 621 nM.
As for `CC(=O)N(c1cc(C)cc(C#N)c1)c1cc(NC(=O)Cc2c(F)cccc2Cl)ccn1` [Example 179, N-{4-[2-(2-Chlor-6-fluorphenyl)acetamido]pyridin-2-yl}-N-(3-cyan-5-methylphenyl)acetamide], the “Human P2X4 HEK Cells” value stood at 98% and the 50% inhibitory concentration (IC50) was 673 nM.
As to `CC(=O)N(c1ccc(C)c(Cl)c1)c1cc(NC(=O)Cc2ccccc2Cl)ccn1` [Example 180, N-(3-Chlor-4-methylphenyl)-N-{4-[2-(2-chlorphenyl)acetamido]pyridin-2-yl}acetamide], the “Human P2X4 HEK Cells” value came to 101% and the IC50 worked out at 569 nM.
For `CC(=O)N(c1ccc(C)c(Cl)c1)c1cc(NC(=O)Cc2cccc(F)c2Cl)ccn1` [Example 181, N-{4-[2-(2-Chlor-3-fluorphenyl)acetamido]pyridin-2-yl}-N-(3-chlor-4-methylphenyl)acetamide], the “Human P2X4 HEK Cells” value is 101% and the IC50 was determined as 574 nM.

As a reminder, the IC50 is the concentration at which inhibition is half-maximal.
